Data from PubChem BioAssay AID330 (DTP/NCI, 2004).
Values joined by “and” are separate entries in the source; they are usually repeats but may differ in a detail not shown here. Identical values can stand only once. Toxic doses and inconclusive results are not listed. Rule for the calls: active = survival T/C of 150% or more; inactive = T/C below 125% in these data.

Tested on: P388 leukemia ip, CD2F1 mice, survival T/C
Assay: NCI In Vivo Anticancer Drug Screen. Data for tumor model P388 Leukemia (intraperitoneal) in CD2F1 (CDF1) mice
Conditions: endpoint: median survival time, higher = longer survival
Method in brief: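 Mice carrying the transplanted tumor received test compound or vehicle. Survival was recorded in each group, and the value is the treated-group measurement divided by that of the vehicle-treated control group.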

[1] = dose: 60.0 mg/kg/injection, schedule: Q01DX005 (ip), vehicle: saline
[2] = dose: 120.0 mg/kg/injection, schedule: Q01DX005 (ip), vehicle: saline
[3] = dose: 240.0 mg/kg/injection, schedule: Q01DX005 (ip), vehicle: saline
[4] = dose: 50.0 mg/kg/injection, schedule: Q01DX009 (ip), vehicle: saline
[5] = dose: 100.0 mg/kg/injection, schedule: Q01DX009 (ip), vehicle: saline
[6] = dose: 200.0 mg/kg/injection, schedule: Q01DX009 (ip), vehicle: saline
[7] = dose: 50.0 mg/kg/injection, schedule: Q01DX005 (ip), vehicle: Klucel (hydroxypropylcellulose) (HPC)
[8] = dose: 100.0 mg/kg/injection, schedule: Q01DX005 (ip), vehicle: Klucel (hydroxypropylcellulose) (HPC)
[9] = dose: 25.0 mg/kg/injection, schedule: Q01DX009 (ip), vehicle: saline
[10] = dose: 60.0 mg/kg/injection, schedule: Q01DX005 (ip), vehicle: Klucel (hydroxypropylcellulose) (HPC)
[11] = dose: 120.0 mg/kg/injection, schedule: Q01DX005 (ip), vehicle: Klucel (hydroxypropylcellulose) (HPC)
[12] = dose: 240.0 mg/kg/injection, schedule: Q01DX005 (ip), vehicle: Klucel (hydroxypropylcellulose) (HPC)
[13] = dose: 50.0 mg/kg/injection, schedule: Q01DX009 (ip), vehicle: Klucel (hydroxypropylcellulose) (HPC)
[14] = dose: 100.0 mg/kg/injection, schedule: Q01DX009 (ip), vehicle: Klucel (hydroxypropylcellulose) (HPC)
[15] = dose: 200.0 mg/kg/injection, schedule: Q01DX009 (ip), vehicle: Klucel (hydroxypropylcellulose) (HPC)
[16] = dose: 6.25 mg/kg/injection, schedule: Q01DX009 (ip), vehicle: saline
[17] = dose: 12.5 mg/kg/injection, schedule: Q01DX009 (ip), vehicle: saline

Measured: T/C

O=c1ccncn1C1OC(CO)C(O)C1O (stereo not given)
inactive: [1] 103 % of control | [2] 102 % of control | [3] 110 % of control

COc1ccc(/C=N/NC(=O)C(=O)N/N=C/c2ccc(OC)c(S(=O)(=O)O)c2)cc1S(=O)(=O)O
inactive: [4] 102 % of control | [5] 104 % of control | [6] 109 % of control

Cc1ccc(/[N+]([O-])=N/N2C(=O)c3ccccc3C2=O)cc1
inactive: dose: 25.0 mg/kg/injection, schedule: Q01DX005 (ip), vehicle: Klucel (hydroxypropylcellulose) (HPC) 101 % of control | [7] 106 % of control | [8] 108 % of control

COCCn1c2nc(=O)n(-c3ccccc3)c(=O)c-2nc2c1CCCC2
inactive: [9] 100 % of control | [4] 93 % of control | [5] 94 % of control | [6] 116 % of control

N#Cc1ccc(OC(=O)Nc2ccc(Cl)c(Cl)c2)cc1
inactive: [10] 118 % of control | [11] 107 % of control | [12] 115 % of control

Cc1nc2ccccc2nc1CBr
inactive: dose: 5.56 mg/kg/injection, schedule: Q01DX009 (ip), vehicle: saline with Tween-80 110 % of control | dose: 8.33 mg/kg/injection, schedule: Q01DX009 (ip), vehicle: saline with Tween-80 120 % of control | dose: 18.7 mg/kg/injection, schedule: Q01DX009 (ip), vehicle: saline with Tween-80 120 % of control

O=C(NCc1ccccc1)c1cccnc1
inactive: [5] 100 % of control | [6] 98 % of control | dose: 400.0 mg/kg/injection, schedule: Q01DX009 (ip), vehicle: saline 100 % of control

Cc1ccc(OP(=O)(Oc2ccc(C)cc2)Oc2ccc(C)cc2)cc1.Cc1ccc(OP(=O)(Oc2ccc(C)cc2)Oc2ccc(C)cc2)cc1.[Cl][Ni][Cl]
inactive: dose: 12.5 mg/kg/injection, schedule: Q04DX003 (ip), vehicle: Klucel (hydroxypropylcellulose) (HPC) 102 % of control | dose: 25.0 mg/kg/injection, schedule: Q04DX003 (ip), vehicle: Klucel (hydroxypropylcellulose) (HPC) 100 % of control and 109 % of control and 114 % of control | dose: 50.0 mg/kg/injection, schedule: Q04DX003 (ip), vehicle: Klucel (hydroxypropylcellulose) (HPC) 100 % of control and 102 % of control

C[P+]1(C)CCc2c1ccc1ccccc21
inactive: dose: 50.0 mg/kg/injection, schedule: Q01DX009 (ip), vehicle: saline with Tween-80 102 % of control

O=C(Nc1ccc(C2=NCCN2)cc1)c1ccc(C(=O)Nc2ccc(C3=NCCN3)cc2)cc1
inactive: dose: 75.0 mg/kg/injection, schedule: Q01DX010 (ip), vehicle: saline 118 % of control | dose: 112.0 mg/kg/injection, schedule: Q01DX010 (ip), vehicle: saline 100 % of control

Cc1c(NC(=O)C(=O)O)ccc2c(=O)cc(C(=O)O)[nH]c12
inactive: [13] 102 % of control and 118 % of control | [14] 109 % of control and 117 % of control | [15] 111 % of control and 124 % of control

COc1nc(NC2OC(CO)C(O)C(O)C2O)c(C(=O)CCl)c(=O)n1C (stereo not given)
inactive: dose: 60.0 mg/kg/injection, schedule: Q01DX005 (ip), vehicle: saline with Tween-80 92 % of control | dose: 120.0 mg/kg/injection, schedule: Q01DX005 (ip), vehicle: saline with Tween-80 87 % of control | dose: 240.0 mg/kg/injection, schedule: Q01DX005 (ip), vehicle: saline with Tween-80 95 % of control and 96 % of control

c1ccc([P+](CC[P+](c2ccccc2)(c2ccccc2)c2ccccc2)(c2ccccc2)c2ccccc2)cc1
inactive: dose: 0.78 mg/kg/injection, schedule: Q01DX009 (ip), vehicle: saline 105 % of control | dose: 1.56 mg/kg/injection, schedule: Q01DX009 (ip), vehicle: saline 103 % of control

CN(CCCCCC(=O)O)c1ccncc1
inactive: dose: 50.0 mg/kg/injection, schedule: Q01DX005 (ip), vehicle: saline 103 % of control | dose: 100.0 mg/kg/injection, schedule: Q01DX005 (ip), vehicle: saline 100 % of control | dose: 200.0 mg/kg/injection, schedule: Q01DX005 (ip), vehicle: saline 108 % of control

O=C(Nc1ccc2[nH]c3ccccc3c2c1)c1ccccc1Cl
inactive: [7] 93 % of control | [8] 95 % of control | dose: 200.0 mg/kg/injection, schedule: Q01DX005 (ip), vehicle: Klucel (hydroxypropylcellulose) (HPC) 90 % of control

CNC(=O)c1ccccc1NC(=O)CCC(=O)O
inactive: dose: 100.0 mg/kg/injection, schedule: Q04DX003 (ip), vehicle: saline 100 % of control | dose: 200.0 mg/kg/injection, schedule: Q04DX003 (ip), vehicle: saline 99 % of control | dose: 400.0 mg/kg/injection, schedule: Q04DX003 (ip), vehicle: saline 100 % of control

CNC(=S)NNc1cccc([N+](=O)[O-])c1
inactive: dose: 25.0 mg/kg/injection, schedule: Q01DX009 (ip), vehicle: other 96 % of control | dose: 50.0 mg/kg/injection, schedule: Q01DX009 (ip), vehicle: other 106 % of control | dose: 100.0 mg/kg/injection, schedule: Q01DX009 (ip), vehicle: other 91 % of control | dose: 200.0 mg/kg/injection, schedule: Q01DX009 (ip), vehicle: other 92 % of control

Clc1ccccc1CN1COc2c(cc(Cl)c3cccnc23)C1
inactive: dose: 100.0 mg/kg/injection, schedule: Q04DX003 (ip), vehicle: Klucel (hydroxypropylcellulose) (HPC) 95 % of control | dose: 200.0 mg/kg/injection, schedule: Q04DX003 (ip), vehicle: Klucel (hydroxypropylcellulose) (HPC) 95 % of control | dose: 400.0 mg/kg/injection, schedule: Q04DX003 (ip), vehicle: Klucel (hydroxypropylcellulose) (HPC) 95 % of control

COC1NC(=S)N(C2CCCCC2)C1(C)C (stereo not given)
inactive: dose: 50.0 mg/kg/injection, schedule: Q01DX009 (ip), vehicle: suspension in saline 97 % of control | dose: 100.0 mg/kg/injection, schedule: Q01DX009 (ip), vehicle: suspension in saline 97 % of control | dose: 200.0 mg/kg/injection, schedule: Q01DX009 (ip), vehicle: suspension in saline 100 % of control

NC(=O)c1ccc2c3c(ccc(C(N)=O)c13)CC2
inactive: [10] 102 % of control | [11] 109 % of control | [12] 109 % of control

CC1=CC2(C)C=C(C)C3(OC(c4ccccc4)=C(C#N)C3=N2)C1=O (stereo not given)
inactive: dose: 50.0 mg/kg/injection, schedule: Q01DX005 (ip), vehicle: saline with Tween-80 103 % of control | dose: 100.0 mg/kg/injection, schedule: Q01DX005 (ip), vehicle: saline with Tween-80 105 % of control | dose: 200.0 mg/kg/injection, schedule: Q01DX005 (ip), vehicle: saline with Tween-80 111 % of control

O=C1c2cc([N+](=O)[O-])cc3cc([N+](=O)[O-])cc(c23)C(=O)N1CCN1CCN(CCN2C(=O)c3cc([N+](=O)[O-])cc4cc([N+](=O)[O-])cc(c34)C2=O)CC1
inactive: dose: 100.0 mg/kg/injection, schedule: Q04DX002 (ip), vehicle: saline with Tween-80 100 % of control | dose: 200.0 mg/kg/injection, schedule: Q04DX002 (ip), vehicle: saline with Tween-80 97 % of control | dose: 400.0 mg/kg/injection, schedule: Q04DX002 (ip), vehicle: saline with Tween-80 94 % of control

c1ccc2c(CCc3c4ccccc4nc4ccccc34)c3ccccc3nc2c1
inactive: dose: 100.0 mg/kg/injection, schedule: Q01DX001 (ip), vehicle: Klucel (hydroxypropylcellulose) (HPC) 102 % of control | dose: 200.0 mg/kg/injection, schedule: Q01DX001 (ip), vehicle: Klucel (hydroxypropylcellulose) (HPC) 105 % of control | dose: 400.0 mg/kg/injection, schedule: Q01DX001 (ip), vehicle: Klucel (hydroxypropylcellulose) (HPC) 105 % of control

CN1CCN(CC(=O)N/N=C/c2ccc([N+](=O)[O-])o2)CC1
inactive: [13] 101 % of control and 94 % of control | [14] 99 % of control and 101 % of control | [15] 107 % of control

CC(=O)c1c(O)cc2c3c1OC(C)(C)C1CCC(C)(CC31)O2 (stereo not given)
inactive: [16] 105 % of control | [17] 105 % of control | [9] 104 % of control | [5] 89 % of control | [6] 93 % of control

C[CH2][Sn]([Br])([CH2]C)[c]1c(CN(C)C)cccc1CN(C)C
inactive: dose: 3.12 mg/kg/injection, schedule: Q01DX009 (ip), vehicle: saline 99 % of control and 100 % of control | [16] 104 % of control and 106 % of control and 95 % of control | [17] 100 % of control and 95 % of control | [9] 104 % of control and 95 % of control

CCC(C)C(NC(=O)CCl)C(=O)O (stereo not given)
inactive: [4] 99 % of control | [5] 96 % of control | [6] 101 % of control

COc1ccc(/C=N\N2CN(C(CC(N)=O)C(=O)O)C(O)(CCl)N=C2N)cc1OC (stereo not given)
inactive: [1] 95 % of control | [2] 98 % of control | [3] 98 % of control
